In patent publication EP0305086A2, “Antibiotic A80577 and process for its production” (ELI LILLY AND COMPANY, priority 1987, dated 1989):

System: Actinomadura verrucosospora A80577
Experiment: Resistance of the producing culture to antibiotic sensitivity discs on seeded ISP No. 2 agar plates
Assay type: cell-based
Details: culture A80577 on ISP No. 2 agar
Experimental: Resistance to antibiotics was measured by padding antibiotic sensitivity discs onto the surface of seeded ISP No. 2 agar plates.
A80577 was resistant to: bacitracin 10 units, cephalothin 30 µg, lincomycin 2 µg, oleandomycin 15 µg, penicillin G 10 units, rifampin 5 µg, and tetracycline 30 µg. It was sensitive to: gentamicin 10 µg, neomycin 30 µg, streptomycin 10 µg, tobramycin 10 µg and vancomycin 30 µg.

gentamicin
Resistance to antibiotics (sensitivity disc) (disc 10 µg): sensitive

CC1(C)S[C@@H]2[C@H](NC(=O)Cc3ccccc3)C(=O)N2[C@H]1C(=O)O [penicillin G]
Resistance to antibiotics (sensitivity disc) (disc 10 units): resistant

bacitracin
Resistance to antibiotics (sensitivity disc) (disc 10 units): resistant

CCC[C@@H]1C[C@@H](C(=O)N[C@@H]([C@H]2O[C@H](SC)[C@H](O)[C@@H](O)[C@H]2O)[C@@H](C)O)N(C)C1 [lincomycin]
Resistance to antibiotics (sensitivity disc) (disc 2 µg): resistant

NC[C@H]1O[C@H](O[C@H]2[C@H](O)[C@@H](O[C@H]3O[C@H](CO)[C@@H](O)[C@H](N)[C@H]3O)[C@H](N)C[C@@H]2N)[C@H](N)C[C@@H]1O [tobramycin]
Resistance to antibiotics (sensitivity disc) (disc 10 µg): sensitive

[H]/N=C(/N)N[C@H]1[C@H](O)[C@@H](O)[C@H](O[C@@H]2O[C@@H](C)[C@](O)(C=O)[C@H]2O[C@@H]2O[C@@H](CO)[C@H](O)[C@@H](O)[C@@H]2NC)[C@@H](N/C(N)=N\[H])[C@@H]1O [streptomycin]
Resistance to antibiotics (sensitivity disc) (disc 10 µg): sensitive

neomycin
Resistance to antibiotics (sensitivity disc) (disc 30 µg): sensitive

CN[C@H](CC(C)C)C(=O)N[C@H]1C(=O)N[C@@H](CC(N)=O)C(=O)N[C@H]2C(=O)N[C@H]3C(=O)N[C@H](C(=O)N[C@H](C(=O)O)c4cc(O)cc(O)c4-c4cc3ccc4O)[C@H](O)c3ccc(c(Cl)c3)Oc3cc2cc(c3O[C@@H]2O[C@H](CO)[C@@H](O)[C@H](O)[C@H]2O[C@H]2C[C@](C)(N)[C@H](O)[C@H](C)O2)Oc2ccc(cc2Cl)[C@H]1O [vancomycin]
Resistance to antibiotics (sensitivity disc) (disc 30 µg): sensitive

CO[C@H]1C[C@H](O[C@H]2[C@H](C)[C@@H](O[C@@H]3O[C@H](C)C[C@H](N(C)C)[C@H]3O)[C@@H](C)C[C@@]3(CO3)C(=O)[C@H](C)[C@@H](O)[C@@H](C)[C@@H](C)OC(=O)[C@@H]2C)O[C@@H](C)[C@@H]1O [oleandomycin]
Resistance to antibiotics (sensitivity disc) (disc 15 µg): resistant

CO[C@H]1/C=C/O[C@@]2(C)Oc3c(C)c(O)c4c(O)c(c(/C=N/N5CCN(C)CC5)c(O)c4c3C2=O)NC(=O)/C(C)=C\C=C\[C@H](C)[C@H](O)[C@@H](C)[C@@H](O)[C@@H](C)[C@H](OC(C)=O)[C@@H]1C [rifampin]
Resistance to antibiotics (sensitivity disc) (disc 5 µg): resistant

CC(=O)OCC1=C(C(=O)O)N2C(=O)[C@@H](NC(=O)Cc3cccs3)[C@H]2SC1 [cephalothin]
Resistance to antibiotics (sensitivity disc) (disc 30 µg): resistant
